As a reminder, the IC50 is the concentration that gives 50% inhibition. As usually defined, the Km is the concentration of substrate that gives half-maximal velocity.

These results are taken from US4962110A, “Pyridazinone derivatives” (Smith Kline & French Laboratories Limited, priority 1989, dated 1990).

For one experiment, the target named is PDE (Peak III). Nature of the experiment: Inhibition of phosphodiesterase PDE (Peak III) from cat heart. The note with it: read-out: IC50 PDE (Peak III); 1 μM cyclic AMP, 37°, pH 7.5.
The test system of experiment [1] is right ventricular strips (force of contraction). Nature of the experiment: Cardiac stimulant activity in vitro: force of contraction of electrically stimulated guinea pig ventricular strips. Also noted: species or system Guinea pigs. The note with it: Cavia porcellus, read-out: EC50 (50% increase in the force of contraction of the ventricular strips); guinea pig right ventricle strips, Krebs Henseleit, 37° C., 1.0 Hz, cumulative concentration response. As for the experimental part:
CARDIAC STIMULANT ACTIVITY--IN VITRO
The compounds of formula (I) and their pharmaceutically acceptable salts are tested for cardiac stimulant activity following a procedure based on that of S. C. Verma and J. H. McNeill (J. Pharm & Exp. Therapeutics, 200, 352-362 (1977)). Guinea pigs (500-700 g) of either sex are sacrificed and the hearts are quickly removed and transferred to a dissecting dish containing oxygenated bathing fluid. While in the bathing medium, the right ventricle is cut into two strips. The strips are each suspended in a 50 ml bath containing Krebs Henseleit solution at 37° C., and the bath is bubbled with 95% oxygen and 5% carbon dioxide. The ventricular strips are electrically stimulated at a frequency of 1.0 Hz, at double the threshold voltage. A resting tension of 1.0 g is applied to the strips and the tension is kept constant by readjustment during an equilibration period of 60 minutes. The bathing fluid is frequently changed during this period. When a steady base line is obtained, a compound under test is added to the bathing fluid and a cumulative concentration response curve is plotted.

The test system of the next experiment is PDE (Peak II). The note with it: in words.
A further experiment relates to PDE (Peak I). Nature of the experiment: Characterisation of PDE (Peak I) from cat heart: substrate kinetics. The class given is biochemical.

Method for PDE (Peak II): (§1) The enzyme was assayed by incubation at 37° for 4-30 min in 50 mM Tris, 5 mM MgCl2, pH 7.5 with [3-H] cyclic nucleotide (4×10^5 disintegrations min^-1) and [14-C] nucleotide 5' monophosphate (3-10^3 disintegrations min^-1). The assay was stopped by boiling, and the [3-H] […] The reaction mixture was diluted with 0.5 ml 100 mM HEPES (N-2-Hydroxyethylpiperazine-N'-2-ethanesulfonic acid), 100 mM NaCl, pH 8.5, and applied to the column. […] The recovery of product as judged by [14-C] recovery was approximately 80%. All assays were linear with time of incubation and concentration of enzyme over the range used in these experiments.
Method for PDE (Peak III): as §1

As to `Nc1cc(-c2ccncc2)c[nH]c1=O` [Amrinone], at PDE (Peak III), the concentration for half-maximal inhibition (IC50) worked out at 51800 nM.

As for `CC1CC(=O)NN=C1c1ccc(Nc2nc(=O)cc[nH]2)cc1` (centres unmarked) [Example 1, 6-[4-(1,4-Dihydro-4-oxo-2-pyrimidinylamino)phenyl]-5-methyl-4,5-dihydro-3(2H)-pyridazinone], the IC50 at PDE (Peak III) was found to be 690 nM. In experiment [1], the EC50 was determined as 600 nM.

As to `Cc1cc(=O)nc(Nc2ccc(C3=NNC(=O)CC3C)cc2)[nH]1` (centres unmarked) [Example 2, 6-[4-(1,4-Dihydro-6-methyl-4-oxo-2-pyrimidinylamino)phenyl]-5-methyl-4,5-dihydro-3(2H)-pyridazinone], the IC50 on PDE (Peak III) turned out to be 450 nM.

For the molecule `Cc1c[nH]c(Nc2ccc(C3=NNC(=O)CC3C)cc2)nc1=O` (centres unmarked) [Example 3, 6-[4-(1,4-Dihydro-5-methyl-4-oxo-2-pyrimidinylamino)-phenyl]-5-methyl-4,5-dihydro-3(2H)-pyridazinone], on PDE (Peak III), the IC50 is 1120 nM.

For `CC1CC(=O)NN=C1c1ccc(Nc2nc(=O)c3ccccc3[nH]2)cc1` (centres unmarked) [Example 4, 6-[4-(1,4-Dihydro-4-oxo-2-quinazolinylamino)phenyl]-5-methyl-4,5-dihydro-3(2H)-pyridazinone], the half-inhibitory concentration (IC50) at PDE (Peak III) was 150 nM.

For `Cc1[nH]c(=O)c(C#N)cc1-c1ccncc1` [Milrinone], the IC50 on PDE (Peak III) amounted to 2200 nM.

With `Nc1nc2c(ncn2[C@@H]2O[C@@H]3COP(=O)(O)O[C@H]3[C@H]2O)c(=O)[nH]1` [cyclic GMP], the affinity result with PDE (Peak II) is reported as “relatively low affinities”. In the experiment with PDE (Peak I) (in words), the affinity result is given as “high affinity”. Further, in the experiment on PDE (Peak I) (with 50 μg/ml calmodulin), the Km worked out at 1400 nM and the “Relative Vmax” value was determined as 7.2.
